Reference: patent US12279855B2, “Highly-timed resolved myocardial blood-oxygen-level-dependent magnetic resonance imaging” (Cedars-Sinai Medical Center, priority 2018, dated 2025)
“Also recorded” adds a separate entry of the source. Like-named read-outs stand apart in the source and are kept apart here.

What was measured:
[1] = extended vasodilatory state, cited from earlier work
[2] = tested on: Anesthetized dogs (intact; with chronic myocardial infarction), myocardium; experiment: Beat-to-beat cardiac BOLD MRI at 3T before and after regadenoson injection; assay type: in vivo, dog
Method: FIG. 2A-FIG. 2F depicts in accordance with various embodiments of the invention, dynamics of BOLD response at rest and under the influence of regadenoson. BOLD response was relatively flat (fluctuated within +/−5%) throughout the measurement at rest (FIG. 2A), but peaks at 2-3 minutes after regadenoson injection to 10-15% and then plateaus after 4 minutes of injection (FIG. 2B). […] BOLD response was relatively flat in Remote and Affected territories at rest (FIG. 2D). However, under the influence of regadenoson (FIG. 2E), the BOLD response remained flat in Affected myocardium, while there was a delayed but rising BOLD response in Remote myocardium peaking at approximately 5 minutes was observed (FIG. 2E). The corresponding LGE image (with evidence of infarction) of the slice and where BOLD responses were measured are shown in FIG. 2F.
Methods. The proposed cardiac BOLD MRI approach was developed based on a LRT formalism (acquisition and reconstruction) that was previously used for ungated cardiac T1 mapping. It is composed of 3 parts: (i) adiabatic T2 preparation that is repeated at a fixed interval to ensure consistent T2 weighting; (ii) repeat acquisition of a set of central k-space lines with GRE readout every other TR to serve as respiratory and cardiac navigators for reconstruction; and (iii) interleaving of a set of golden-ratio radial GRE readout lines with the navigator lines serving as LRT training data. In brief, we modeled a high-dimensional cardiac image space (cardiac motion (Uc), respiratory motion (Ur), T1 recovery time (Ut), and time after excitation (Ut)) as a low-rank tensor that is partially separable. The complete tensors of all subspaces were recovered from the frequently sampled navigator signal using LRT completion. Subsequently cardiac and respiratory phased-resolved, beat-to-beat cardiac BOLD images were reconstructed. Anesthetized dogs (intact, n=2; and with chronic myocardial infarction, n=2) underwent continuous acquisition in a 3T MRI system (Siemens, Verio) that began 1-minute prior to regadenoson injection ([…]; duration of injection=30 sec) and ended 6 minutes after regadenoson injection. The data acquisition and reconstruction schemes are illustrated in FIG. 1. Sequence parameters were: scan time: 6 mins, delay between T2prep=800 ms; TE (T2prep time)=60 ms; GRE readout (TE/TR=1.4/3.3 ms, flip angle=12°, FOV=270×270 mm2, in-plane resolution: 1.7×1.7 mm2, 1 slice of thickness: 6 mm).
Results. […] LGE images show the region where the BOLD responses were measured. […] In animals with chronic MI (FIG. 2D, FIG. 2E and FIG. 2F), rest BOLD Response was also relatively stable in the infarcted and remote myocardium. However, following regadenoson injection, there was no response in the affected (infarcted) myocardium; but in the remote myocardium, a noticeably delayed hyperemic BOLD Response was observed (compared to intact animals), which peaked ˜5 minutes after regadenoson injection and plateaued to above 25%.

[3] = intact animal, healthy myocardium, regadenoson 2.5 mg/kg over 30 sec

Row | Compound | terminal half-life ([1]; literature references) [min] | terminal half-life ([1]; range printed in mixed units (min to hours), literature reference) [min] | BOLD response in Affected (infarcted) myocardium ([2]; animal with chronic MI, affected territory, regadenoson 2.5 mg/kg over 30 sec) | plateau of BOLD Response in Remote myocardium ([2]; animal with chronic MI, remote territory, regadenoson 2.5 mg/kg over 30 sec) | plateau of normalized BOLD Response [2, 3] | time after injection at which BOLD response plateaus [2, 3] [min] | time over which BOLD response rises / peaks after regadenoson injection [2, 3] [min] | BOLD response at peak after regadenoson injection ([2]; intact animal, healthy myocardium, regadenoson injection 2.5 mg/kg over 30 sec, normalized BOLD response)
1 | Nc1nc(N/N=C/C2CCCCC2)nc2c1ncn2[C@@H]1O[C@H](CO)[C@@H](O)[C@H]1O [binodenoson] | 10 to 120 | – | – | – | – | – | – | –
2 | OCCN(CCO)c1nc(N2CCCCC2)c2nc(N(CCO)CCO)nc(N3CCCCC3)c2n1 [dipyridamole] | – | 40 to 600 | – | – | – | – | – | –
3 | CNC(=O)c1cnn(-c2nc(N)c3ncn([C@@H]4O[C@H](CO)[C@@H](O)[C@H]4O)c3n2)c1 [regadenoson] | 33 to 108 | – | remained flat; also recorded: no response | above 25% | more than 10% | 4 | 2 to 3 | 10-15%
